Source: publication PMC9777575, “Exploring the Promotive Effects and Mechanisms of Different Polyphenolic Extracts from Prinsepia utilis Royle Seed Shell on Tyrosinase” (Foods, 2022)

How the values were obtained:
mushroom tyrosinase = test: Enzyme kinetic analysis (Lineweaver-Burk) of mushroom tyrosinase; assay type: biochemical; settings: sample used as substrate
Description: The enzyme kinetics was determined by referring to the previously reported method with appropriate modifications. […] As described in Section 2.5, a blank group, a blank control group and a sample control group were set up. The initial rate of dopachrome formation in the reaction mixture was determined as an increase in absorbance at a wavelength of 475 nm per minute by using a microplate reader. The Michaelis constant (Km) and maximal velocity (Vmax) of tyrosinase activity were determined by Lineweaver-Burk plots using different concentrations of (+)-catechin and (−)-epicatechin as substrates.

[1] = target: Tyrosinase (from mushroom, EC1.14.18.1); test: Mushroom tyrosinase activity assay (L-DOPA substrate, absorbance at 475 nm); assay type: biochemical; settings: effective concentration to promote relative enzyme activity at 150%, 37 °C, 30 min, read-out: EC50 of activation effect on tyrosinase
Description: The tyrosinase activity was determined by referring to the previously reported method with appropriate modifications. […] The reaction was carried out at 37 °C for 30 min and the absorbance values were recorded at 475 nm with a Spectra Max M5 microplate reader (Molecular Device, Sunnyvale, CA, USA). Blank group (system containing PBS, enzyme and L-DOPA solution), blank control group (system containing PBS and L-DOPA solution), and sample control group (system containing PBS, sample solution and L-DOPA solution) were also set up. The relative enzyme activity of each sample group was calculated using the following formula: Relative enzyme activity (%) = [(B1 − B2)/(A1 − A2)] × 100 where A1 = absorbance of the blank group, A2 = absorbance of the blank control group, B1 = absorbance of the sample group and B2 = absorbance of the sample control group. The effective concentration of each sample to promote relative enzyme activity at 150% was calculated as EC50 value.

tyrosinase = target: tyrosinase; set-up: method as in PMID 33782442; settings: read-out: EC50 of activation effect on tyrosinase; cited from earlier work

Km (mushroom tyrosinase; DOPA 1 mM) [µM] | Vm of tyrosinase activity (mushroom tyrosinase; DOPA 1 mM) | Km (mushroom tyrosinase; DOPA 1.5 mM) [µM] | Vm of tyrosinase activity (mushroom tyrosinase; DOPA 1.5 mM) | Km (mushroom tyrosinase; DOPA 2 mM) [µM] | Vm of tyrosinase activity (mushroom tyrosinase; DOPA 2 mM) | EC50 [1] [µM] | Compound | EC50 (tyrosinase) [µM]
62 | 200.00 | 74.3 | 175.44 | 87 | 158.73 | 32.5 ± 1.7 | Oc1cc(O)c2c(c1)OC(c1ccc(O)c(O)c1)C(O)C2 (single isomer, unassigned; (+)) [(+)-Catechin] | –
– | – | – | – | – | – | – | O=C(CCc1ccc(O)c(O)c1)c1c(O)cc(O)c([C@@H]2O[C@H](CO)[C@@H](O)[C@H](O)[C@H]2O)c1O [Aspalathin] | 265 ± 4.56
11.2 | 85.47 | 11.7 | 80.00 | 18 | 71.94 | 36.7 ± 0.43 | Oc1cc(O)c2c(c1)O[C@H](c1ccc(O)c(O)c1)[C@H](O)C2 [(−)-Epicatechin] | –
